Reference: ChEMBL document CHEMBL3632483, “Synthesis and pharmacological evaluation of piperidine (piperazine)-substituted benzoxazole derivatives as multi-target antipsychotics” (Bioorg Med Chem Lett, 2015)

What was measured:
[1] = biological target: T1, Adrenergic receptor alpha-1 (Rattus norvegicus, UniProt P15823+P23944+P43140); test: Displacement of [3H]prazosin from adrenergic alpha1 receptor in rat cerebral cortex homogenates after 60 mins by liquid scintillation counting; type: tissue-based
T1 sequence (P15823 whole entry): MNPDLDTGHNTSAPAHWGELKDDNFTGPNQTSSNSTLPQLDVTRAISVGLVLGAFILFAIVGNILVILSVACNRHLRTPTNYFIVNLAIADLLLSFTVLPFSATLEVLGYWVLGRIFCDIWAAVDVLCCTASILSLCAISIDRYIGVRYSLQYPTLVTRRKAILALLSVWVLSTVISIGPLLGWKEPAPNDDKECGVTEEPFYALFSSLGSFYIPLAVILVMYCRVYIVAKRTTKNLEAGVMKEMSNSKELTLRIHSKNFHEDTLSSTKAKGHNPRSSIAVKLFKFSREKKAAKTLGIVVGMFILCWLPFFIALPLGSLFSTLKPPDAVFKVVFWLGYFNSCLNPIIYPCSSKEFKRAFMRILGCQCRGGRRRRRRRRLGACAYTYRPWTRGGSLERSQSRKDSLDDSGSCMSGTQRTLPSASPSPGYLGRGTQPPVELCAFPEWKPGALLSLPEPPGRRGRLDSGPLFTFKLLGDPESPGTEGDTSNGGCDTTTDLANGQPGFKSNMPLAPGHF
T1 sequence (P23944 whole entry): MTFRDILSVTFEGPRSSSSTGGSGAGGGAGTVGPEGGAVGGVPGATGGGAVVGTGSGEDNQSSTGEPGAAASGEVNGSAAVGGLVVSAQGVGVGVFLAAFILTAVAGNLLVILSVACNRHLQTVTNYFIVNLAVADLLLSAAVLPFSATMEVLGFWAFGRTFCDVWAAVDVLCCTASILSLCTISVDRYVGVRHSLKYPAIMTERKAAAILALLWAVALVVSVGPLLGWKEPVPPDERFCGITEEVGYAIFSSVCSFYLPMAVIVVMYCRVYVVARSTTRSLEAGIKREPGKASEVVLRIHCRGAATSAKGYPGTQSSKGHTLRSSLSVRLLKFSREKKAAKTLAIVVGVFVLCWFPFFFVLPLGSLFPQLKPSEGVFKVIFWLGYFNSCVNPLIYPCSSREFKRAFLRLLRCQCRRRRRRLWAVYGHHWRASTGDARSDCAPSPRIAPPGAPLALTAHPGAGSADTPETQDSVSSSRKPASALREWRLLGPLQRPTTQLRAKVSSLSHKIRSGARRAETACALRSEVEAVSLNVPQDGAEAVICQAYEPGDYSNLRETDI
T1 sequence (P43140 whole entry): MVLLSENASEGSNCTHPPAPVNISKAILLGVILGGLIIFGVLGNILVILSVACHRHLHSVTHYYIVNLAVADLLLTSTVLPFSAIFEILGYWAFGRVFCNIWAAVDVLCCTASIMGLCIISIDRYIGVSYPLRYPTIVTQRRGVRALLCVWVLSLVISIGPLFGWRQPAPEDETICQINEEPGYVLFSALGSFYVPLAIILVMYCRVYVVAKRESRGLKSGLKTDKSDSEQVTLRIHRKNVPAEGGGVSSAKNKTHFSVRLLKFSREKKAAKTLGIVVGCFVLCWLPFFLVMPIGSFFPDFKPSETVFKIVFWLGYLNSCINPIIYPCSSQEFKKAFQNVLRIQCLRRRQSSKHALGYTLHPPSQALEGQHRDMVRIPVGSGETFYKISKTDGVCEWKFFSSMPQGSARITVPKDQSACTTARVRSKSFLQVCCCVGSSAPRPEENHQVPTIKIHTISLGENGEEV

[2] = biological target: 5-hydroxytryptamine receptor 7 (Rattus norvegicus, UniProt P32305); test: biochemical
Chain of 5-hydroxytryptamine receptor 7 (P32305 whole entry): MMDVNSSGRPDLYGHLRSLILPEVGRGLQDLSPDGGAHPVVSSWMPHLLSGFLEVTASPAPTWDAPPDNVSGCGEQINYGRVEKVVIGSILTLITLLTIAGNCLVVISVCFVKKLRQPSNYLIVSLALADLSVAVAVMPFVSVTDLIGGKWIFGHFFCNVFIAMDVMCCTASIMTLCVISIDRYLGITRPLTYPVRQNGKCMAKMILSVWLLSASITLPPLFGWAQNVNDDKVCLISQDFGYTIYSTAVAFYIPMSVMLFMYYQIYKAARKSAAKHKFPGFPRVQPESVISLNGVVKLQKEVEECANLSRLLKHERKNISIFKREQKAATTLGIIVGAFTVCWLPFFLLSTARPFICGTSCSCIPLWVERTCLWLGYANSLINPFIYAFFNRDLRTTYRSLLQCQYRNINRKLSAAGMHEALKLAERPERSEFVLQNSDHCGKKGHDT
Description: Displacement of [3H]-5-CT from 5-HT7 receptor in rat hypothalamus homogenates after 120 mins by liquid scintillation counting

[3] = biological target: T2, 5-hydroxytryptamine receptor 1A (Rattus norvegicus, UniProt P19327); test: Displacement of [3H]8-OH-DPAT from 5-HT1A receptor in rat cerebral cortex homogenates after 60 mins by liquid scintillation counting; type: tissue-based
T2 sequence (P19327 whole entry): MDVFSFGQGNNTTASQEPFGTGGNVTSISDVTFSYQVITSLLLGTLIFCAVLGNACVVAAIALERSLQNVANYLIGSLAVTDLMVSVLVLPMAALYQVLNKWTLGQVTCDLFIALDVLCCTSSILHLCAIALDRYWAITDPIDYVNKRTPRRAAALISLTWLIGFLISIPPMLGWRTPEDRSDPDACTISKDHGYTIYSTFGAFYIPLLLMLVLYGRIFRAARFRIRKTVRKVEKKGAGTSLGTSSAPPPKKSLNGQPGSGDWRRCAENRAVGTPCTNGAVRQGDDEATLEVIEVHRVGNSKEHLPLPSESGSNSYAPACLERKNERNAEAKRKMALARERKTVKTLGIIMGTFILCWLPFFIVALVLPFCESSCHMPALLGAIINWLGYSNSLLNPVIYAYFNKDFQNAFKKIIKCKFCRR

[4] = biological target: 5-hydroxytryptamine receptor 2A (Rattus norvegicus, UniProt P14842); test: Displacement of [3H]ketanserine from 5-HT2A receptor in rat cerebral cortex homogenates after 60 mins by liquid scintillation counting; type: tissue-based
Chain of 5-hydroxytryptamine receptor 2A (P14842 whole entry): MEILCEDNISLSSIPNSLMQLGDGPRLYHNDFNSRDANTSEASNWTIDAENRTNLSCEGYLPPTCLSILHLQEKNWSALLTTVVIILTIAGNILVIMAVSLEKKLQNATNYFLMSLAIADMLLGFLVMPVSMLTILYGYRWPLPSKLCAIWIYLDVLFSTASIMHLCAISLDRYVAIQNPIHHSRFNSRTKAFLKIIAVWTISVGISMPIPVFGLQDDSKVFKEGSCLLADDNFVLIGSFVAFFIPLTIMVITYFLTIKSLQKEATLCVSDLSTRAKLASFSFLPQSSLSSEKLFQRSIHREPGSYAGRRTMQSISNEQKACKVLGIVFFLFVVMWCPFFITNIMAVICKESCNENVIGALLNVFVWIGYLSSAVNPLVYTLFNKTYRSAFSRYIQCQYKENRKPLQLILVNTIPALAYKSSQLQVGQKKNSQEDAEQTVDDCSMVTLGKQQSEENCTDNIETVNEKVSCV

[5] = biological target: T3, 5-hydroxytryptamine receptor 2C (Rattus norvegicus, UniProt P08909); test: Displacement of [3H]mesulergine from 5-HT2C receptor in rat cerebral cortex homogenates after 60 mins by liquid scintillation counting; type: tissue-based
T3 sequence (P08909 whole entry): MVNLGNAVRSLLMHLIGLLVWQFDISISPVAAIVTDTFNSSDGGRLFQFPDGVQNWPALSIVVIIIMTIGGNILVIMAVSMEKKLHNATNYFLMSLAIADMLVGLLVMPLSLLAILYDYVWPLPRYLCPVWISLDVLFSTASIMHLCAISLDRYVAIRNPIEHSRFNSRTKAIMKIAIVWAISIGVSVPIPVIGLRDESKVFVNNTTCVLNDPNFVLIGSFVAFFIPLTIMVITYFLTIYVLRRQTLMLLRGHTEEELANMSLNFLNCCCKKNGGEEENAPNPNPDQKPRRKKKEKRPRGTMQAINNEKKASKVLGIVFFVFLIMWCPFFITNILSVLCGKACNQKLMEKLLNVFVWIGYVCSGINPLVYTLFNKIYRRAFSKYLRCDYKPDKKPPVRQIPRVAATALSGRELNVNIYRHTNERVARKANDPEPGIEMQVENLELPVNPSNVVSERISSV

[6] = biological target: D(2) dopamine receptor (Rattus norvegicus, UniProt P61169); test: Displacement of [3H]spiperone from dopaminergic D2 receptor in rat striatum homogenates after 60 mins by liquid scintillation counting
Chain of D(2) dopamine receptor (P61169 whole entry): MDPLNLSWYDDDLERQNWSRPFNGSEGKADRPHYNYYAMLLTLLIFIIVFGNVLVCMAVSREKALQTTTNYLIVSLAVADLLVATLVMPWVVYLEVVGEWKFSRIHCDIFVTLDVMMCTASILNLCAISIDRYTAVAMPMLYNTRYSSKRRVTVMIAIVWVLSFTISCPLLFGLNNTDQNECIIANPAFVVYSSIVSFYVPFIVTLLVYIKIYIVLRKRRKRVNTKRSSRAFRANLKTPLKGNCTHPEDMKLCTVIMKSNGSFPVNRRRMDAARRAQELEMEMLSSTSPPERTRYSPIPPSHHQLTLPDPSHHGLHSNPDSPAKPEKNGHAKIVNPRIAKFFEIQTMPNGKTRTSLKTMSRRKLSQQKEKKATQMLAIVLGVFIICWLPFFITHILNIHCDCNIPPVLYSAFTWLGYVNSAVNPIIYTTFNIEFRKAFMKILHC

[7] = Acute toxicity in Sprague-Dawley rat; type: organism-based; conditions: in vivo

Row | SMILES | Ki [1] [nM] | Ki [2] [nM] | Ki [3] [nM] | Ki [4] [nM] | Ki [5] [nM] | Ki [6] [nM] | LD50 [7] [mg/kg]
1 | Fc1ccc2c(C3CCN(CCCOc4ccc(Cc5nc6ccccc6o5)cc4)CC3)noc2c1 | 3276 | 18.9 | 21.3 | 2.7 | 1990 | 10.6 | > 2000
2 | Fc1ccc2c(C3CCN(CCCOc4ccc(-c5nc6ccccc6o5)cc4)CC3)noc2c1 | 95 | 765 | 83.5 | 8.3 | 186 | 22.1 | > 2000
